Results reported in US20080125498A1, “TREATMENT OF NEURODEGENERATIVE DISEASES AND CONDITIONS USING PAR1 ANTAGONISTS” (priority 2001, published 2008).
Square brackets hold non-standard residues; d marks the D form. * marks the point of attachment. Phe(4-guanidino) = N=C(N)Nc1ccc(C[C@H](N)C(=O)O)cc1; Phe(4-F) = N[C@@H](Cc1ccc(F)cc1)C(=O)O; trans‑cinnamoyl = O=C(/C=C/c1ccccc1)*

Key:
[1] = tested on: NMDA receptor; assay: Whole cell patch recording of NMDA-evoked currents in hippocampal slice CA1 pyramidal neurons; assay type: cell-based, rat
[2] = tested on: NMDA receptor; assay: Whole cell patch recording of NMDA-evoked currents in hippocampal CA1 pyramidal cells of wild-type and PAR1-/- mice; assay type: cell-based, mouse; conditions: 100 micromolar APV, wild-type and PAR1-/- mice
[3] = tested on: PAR1; assay: Free intracellular calcium in cultured astrocytes (Fluo-3 AM); assay type: cell-based, mouse
[4] = tested on: PAR1; assay type: cell-based, rat
[5] = tested on: PAR1; assay: PI hydrolysis in hippocampal slices; assay type: cell-based, mouse; conditions: pre-incubation with antagonist peptide
Excerpt: PAR1 is a seven transmembrane G-protein coupled receptor that stimulates G-alpha-q to initiate phosphatidyl inositol (PI) hydrolysis. To ensure that PAR1 is functional in regions of the brain that are subject to ischemic damage in the mouse transient focal ischemia model, we tested the ability of several activators of PAR1 to initiate PI hydrolysis (Chung et al., 1997) in the hippocampus and striatum.
Since tPA activates plasminogen to form plasmin, we tested whether exogenously applied tPA could activate endogenous plasminogen in brain slices to form plasmin and activate PAR1.

[6] = tested on: NR1 subunit; assay: NMDA receptor subunit immunoblots of thrombin-treated brain membranes; assay type: biochemical, rat; conditions: 0.1-1 mM SFLLRN
Experimental: NMDA receptor subunit immunoblots. Human embryonic kidney (HEK) cells were maintained in DMEM supplemented with 0.5 mM glutamine, 1 mM pyruvate, penicillin, streptomycin, and 10% fetal bovine serum in a humidified environment with 5% CO2, and transfected with 1 microgram/ml of NR1 or 1:2 microgram/ml NR1:NR2 cDNA. Cells were washed in ice-cold HEPES buffered saline (HBS), scraped on ice, and membranes isolated by centrifugation at 12,000×g. […] Adult rat brain regions were dissected, frozen in liquid nitrogen, homogenized in ice-cold HEPES buffered saline (HBS), centrifuged, and stored at −20° C. Membranes were resuspended in HBS and treated with thrombin or buffer for 30 min at 37° C. Samples were centrifuged, and the membrane pellet resuspended in 2% sodium dodecylsulphate (SDS), 62.5 mM Tris, 10% glycerol, 5% beta-mercaptoethanol, 0.05% bromophenol blue (pH 6.8); some samples were treated with IOU DNase for 10 min at 37° C. SDS/polyacrylamide gel electrophoresis (SDS/PAGE) and protein blotting to Immobilon-P membranes was performed as described (Lau and Huganir, Differential tyrosine phosphorylation of N-methyl-D-aspartate receptor subunits. J Biol Chem 270: 20036-20041, 1995). Membranes were blocked for 30 min in 0.2 M Tris base, 1.37 M NaCl, pH 7.4, containing 5% nonfat dry milk, and incubated overnight at 4° C. in primary antibodies: NR1 mAb54.1 (gift from Dr. S. Heinemann, Salk Institute, La Jolla Calif.), NR1 alt-C-terminal (Upstate Biotechnology, Lake Placid, N.Y.), NR2A C-terminal (Chemicon, Temecula, Calif.), or NR2B C-terminal (Upstate Biotechnology). Membranes were washed 3×, and incubated with HRP-conjugated goat anti-mouse or goat anti-rabbit antibodies (1:10,000), washed 3×, and developed using enhanced chemiluminescence. The percent of receptor cleaved by thrombin was determined using densitometry.

[7] = tested on: NMDA receptor; assay: Two electrode voltage clamp of recombinant NMDA receptors with or without PAR1 in Xenopus oocytes; assay type: cell-based, Xenopus laevis
Experimental: Expression and recording of NMDA and PAR1 receptor function in Xenopus laevis oocvtes. cRNA was synthesized from linearized template cDNA according to manufacturer specifications (Ambion, Austin, Tex.). Xenopus oocytes were removed from ovaries of female frogs anesthetized with 0.3% 3-aminobenzoic acid ethylester. Groups of 20-30 stage V-VI oocytes were incubated in 292 U/ml Worthington (Freehold, N.J.) Type IV collagenase for 2 hours with slow shaking. The oocytes were rinsed in Barth's solution, and stored at 17° C. in Barth's solution supplemented with 100 microgram/ml gentamycin and 40 microgram/ml streptomycin. Control oocytes were injected with 3 ng NR1 subunit and 7 ng NR2B subunit. Other oocytes were injected with the NMDA receptor subunits plus 3 ng PAR1 cRNA. Two electrode voltage clamp recordings were made 3-7 days post-injection. Oocytes were continually perfused with recording solution (in mM, 90 NaCl, 1 KCl, 10 HEPES, pH 7.4) and held under voltage clamp at −30 to −50 mV with an OC-725B amplifier (Warner Instruments, Hamden, Conn.). Recording solution was supplemented with 1.0 mM CaCl2 during initial impalement of the oocytes and subsequently 0.5 mM BaCl2 during recording to reduce the calcium-activated chloride current endogenous to oocytes. […] NMDA receptor currents were evoked by 20 micromolar glutamate/10 micromolar glycine perfused for 0.5-1 minute. […] Expression of PAR1 protein was verified by a thrombin or SFLLRN-stimulated rapidly desensitizing inward current at −30 mV that reflects the Ca^2+-activated Cl^− current endogenous to the oocyte. To test the ability of thrombin to modify NMDA receptor function in oocytes, recordings of receptor function were made both before and after a 15-60 min incubation in recording solution supplemented with thrombin in Eppendorf tubes at room temperature. […] Oocytes with responses less than 50 nA were not included in the analysis.

Compound: N[C@H](CCCP(=O)(O)O)C(=O)O [APV, D-2-amino-5-phosphonovaleric acid, reference compound]
- block of responses to NMDA/glycine ([1]; 100 micromolar APV): blocked the response
- block of NMDA receptor response following thrombin treatment [2]: abolished

Compound: Nc1ncnc2c1ncn2[C@@H]1O[C@H](COP(=O)(O)OP(=O)(O)OP(=O)(O)O)[C@@H](O)[C@H]1O [ATP]
- free intracellular calcium ([3]; cultured astrocytes from PAR1-/- knockout mice): increases free intracellular calcium
- free intracellular calcium ([3]; cultured astrocytes from wild type mice): increases free intracellular calcium

Compound: NC(N)=NCCC[C@H](NC(=O)[C@@H]1CCCN1C(=O)[C@H](N)Cc1ccccc1)C(=O)CCl [PPACK, D-Phe-Pro-Arg-chloromethylketone]
- response magnitude to thrombin (F/Fo) with PPACK [4]: 1.1±0.04 fold

Compound: N-trans-cinnamoyl-p-fluoroPhe-p-guanidinoPhe-Leu-Arg-Arg-NH2 ({trans‑cinnamoyl}-[Phe(4-F)][Phe(4-guanidino)]LRR-NH2; SMILES CC(C)C[C@H](NC(=O)[C@H](Cc1ccc(NC(=N)N)cc1)NC(=O)[C@H](Cc1ccc(F)cc1)NC(=O)/C=C/c1ccccc1)C(=O)N[C@@H](CCCNC(=N)N)C(=O)N[C@@H](CCCNC(=N)N)C(N)=O) [PAR1 antagonist peptide, reference compound]
- inhibition of PI hydrolysis produced by thrombin and plasmin [5]: inhibited PI hydrolysis

Compound: SFLLRN [reference compound]
- potentiation of the response to pressure applied NMDA plus glycine ([1]; 30 micromolar SFLLRN, n=9): 1.76±0.19 fold
- stimulation of NR1 cleavage [6]: did not stimulate cleavage
- Fluo-3 fluorescence in soma and dendrites ([4]; 3 nM thrombin or 10 micromolar SFLLRN, TTX/APV present, subset of neurons): robust increase
- potentiation of NMDA receptor current after SFLLRN stimulation of PAR1 ([7]; NR1-1a/NR2B plus PAR1, 10-30 micromolar SFLLRN, n=9): 1.41±0.11 fold
- SFLLRN potentiation of NR1-1a/NR2A receptors ([7]; oocytes with PAR1, 10-30 micromolar SFLLRN, n=6): 1.85±0.1 fold
